# Reference: publication PMC10914731, “Homo-BacPROTAC-induced degradation of ClpC1 as a strategy against drug-resistant mycobacteria” (Nature Communications, 2024)
# Values joined by “and” are separate entries in the source; they are usually repeats but may differ in a detail not shown here. Identical values can stand only once. Like-named read-outs stand apart in the source and are kept apart here. *1 amine or outer side, *2 acyl side, *3 side chain or, on linkers, in order; H or OH if unused. Where a SMILES comes first, the peptide text is derived from it. [ ]: non-standard residue; d: D form. X1 = C#CCn1cc(C[C@H](N[*:1])C(=O)[*:2])c2ccccc21; NMeLeu(5-OH,4R) = CN[C@@H](C[C@@H](C)CO)C(=O)O; Phe(βR-OMe) = CO[C@H](c1ccccc1)[C@H](N)C(=O)O; NMeL = CN[C@@H](CC(C)C)C(=O)O
# Assays:
# Acinetobacter baumannii = experiment: MIC ESKAPES panel, Acinetobacter baumannii; format: cell-based
# Procedure: (§1) Minimum inhibitory concentration (MIC) against ESKAPES panel of Gram positive and Gram negative pathogens (Enterococcus faecium, Staphylococcus aureus, Klebsiella pneumoniae, Acinetobacter baumannii, Pseudomonas aeruginosa, Enterobacter cloacae and Salmonella typhimurium [ESKAPES panel]) were determined at the FNDR by the standard broth dilution method [CLSI, M100]. […] Mueller Hinton broth (MHB) medium was used to grow ESKAPES panel strains. The individual cultures were added as 200 μL (inoculum of 3–7 × 10^5 cfu/ml) to the respective assay plates in each well to all columns, except the media control (200 μL of medium). […] The assay plates were incubated at 37 °C, and the results were noted on the 2nd day as turbidometric readout. The clear wells indicated inhibition of growth, while the turbid wells indicated uninhibited growth.
# Mtb (moxR) FNDR-M1 = experiment: microbe, parasite or virus in culture; format: cell-based
# in vivo = format: in vivo, BALB/cAnNCrl mice
# Procedure: The in-life experimental procedures were conducted in strict compliance with German and European animal welfare legislation in an AAALAC-accredited facility. Male BALB/cAnNCrl mice (Charles River Laboratories Research Models and Services, 97633 Sulzfeld, Germany) were used. Animals were 9 weeks old at dosing with a body weight of 21.6–24.3 g. Animals were delivered free of pathogens according to FELASA recommendations with a health certificate provided by the breeder. Upon receipt, the state of health and sex was checked. Animals acclimatized for at least 5 days before the commencement of the in-life phase. During acclimation, animals were group-housed in individually ventilated cages, on birch wood granulate bedding with species-specific enrichment (nesting material, mouse igloo, gnawing wood). During experimental conduct, animals were housed in conventional cages with elevated grid floors. Grid floor was used to avoid contamination with test item material excreted via urine and feces and subsequent reuptake during fur grooming. No bedding and enrichment were provided except a cage divider, which can be used as a shelter. Animals always had unlimited access to food and water and received a pelleted, total pathogen-free maintenance diet and tap drinking water, sterilized by filter.
# On the day before dosing, test item(s) were suspended in kleptose (20% in WFI) under continuous stirring (3.0 mg/ml). Following 2 min vortexing and 1 h stirring, the formulation was sonicated at 60 °C for 30 min and stirred at ambient temperature overnight. Before dosing, the formulation was vortexed for 2 min followed by ultraturrax treatment for 2 min.
# Male BALB/cAnNCrl mice (n = 3 per test item and administration route) received a bolus dose of the formulated test item(s) (1 mg/kg iv, 30 mg/kg po) at t = 0 h, and whole blood samples were collected subsequently (35 µl at 0.1 (iv) / 0.25 (po), 0.5, 1, 2, 4, 6 h; 600 µl at sacrifice after 24 h). Animals were euthanized by exsanguination in deep isoflurane anesthesia. Whole blood samples were immediately stored on ice at about 4 °C. Plasma was separated by centrifugation at approximately 10,000 × g for 5 m at +4 °C. Centrifugation of each blood sample was started within 10 m after collection. A single aliquot of at least 15 µL of plasma was prepared and immediately stored at −20 ± 5 °C.
# Sample proteins were precipitated with ACN (1 + 12, v/v) containing internal standard, and supernatants analyzed by quantitative UPLC-MS/MS: Phenomenex Luna Omega C18, 2.1 × 50 mm, 1.6 µm, 40 °C, gradient between 10% - 90% ACN with 0.1% formic acid. LogD determination: Lipophilicity of the test items, expressed as chromLogD7.5, was assessed by measuring their chromatographic retention times on C18-material. The chromatographic retention versus logD7.5 values of a series of thirteen n-alkan-2-ones (2-butanone – 2-hexadecanone) served as lipophilicity calibration.
# Msm #607 = experiment: Minimum bactericidal concentration (MBC), Msm #607; format: cell-based, Mycobacterium smegmatis; conditions: Mycolicibacterium smegmatis
# Enterococcus faecium = experiment: MIC ESKAPES panel, Enterococcus faecium; format: cell-based
# Procedure: as §1
# Staphylococcus aureus = experiment: MIC ESKAPES panel, Staphylococcus aureus; format: cell-based
# Procedure: as §1
# [1] = format: in vitro ADME, Rat; conditions: rat, pH 7.4
# Mtb H37Rv = experiment: Minimum bactericidal concentration (MBC), Mtb H37Rv; format: cell-based, Mycobacterium tuberculosis; conditions: Mycobacterium tuberculosis, H37RV
# [2] = tested on: Mtb H37Rv in THP-1 macrophages; experiment: Intracellular MIC assay in THP-1 macrophages; format: cell-based, Mycobacterium tuberculosis; parameters: Emax: unit not given here
# [3] = Hepatocyte stability, mice; format: in vitro ADME; conditions: mouse, pH 7.4
# In short: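 Clearance expressed as % of liver blood flow (% Qh), derived from half-life via the well-stirred liver model. Compound at 1 µM final was incubated up to 6 h with ~1 million cells/mL hepatocytes in 50% serum buffer, 37 °C, pH 7.4.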
# [4] = oral gavage 30 mg/kg, mice, Mean, BLOQ <1.00 nmol/L
# [5] = oral gavage, individual animals 1-3
# [6] = oral gavage, individual animals 1-3, BLOQ <1.00 nmol/L
# [7] = Gram-Positive Bacteria, replicates 1-3
smiles,measurement,setting,value
"C#CCn1cc(C[C@@H]2NC(=O)[C@H](C(C)C)NC(=O)[C@H](CC(C)C)N(C)C(=O)[C@H](C(C)C)NC(=O)[C@H]([C@H](OC)c3ccccc3)NC(=O)[C@H](C)NC(=O)[C@H](C[C@@H](C)CO)N(C)C2=O)c2ccccc21 [Compound 5] (cyclo(A[Phe(βR-OMe)]V[NMeL]V[X1][NMeLeu(5-OH,4R)]))",MIC,"Acinetobacter baumannii; Gram negative, n = 3 well replicates, read-out: MIC Acinetobacter baumanii",> 50 µM
same,MIC,"Acinetobacter baumannii; Gram-Negative Bacteria, replicates 1-3, read-out: MIC Acinetobacter baumannii",> 50 µM and > 47 µg/mL
same,MIC,"Mtb (moxR) FNDR-M1; M. tuberculosis FNDR-M1, single well replicates",0.391 µM and 0.781 µM
same,MIC,"Mtb (moxR) FNDR-M1; Mycobacterium tuberculosis, M. tuberculosis FNDR-M1, single well replicates",0.781 µM
same,MIC,"Mtb (moxR) FNDR-M1; Mycobacterium tuberculosis, Mtb (moxR) FNDR-M1, mean ± SD, n = 3 well replicates",0.7 ± 0.2 µM
same,half-life,"in vivo; male, BALB/cAnNCrl, mouse, in vivo, po, […], oral gavage, individual animals 1-3",36.5 min
same,tmax,"in vivo; male, BALB/cAnNCrl, mouse, in vivo, po, […], oral gavage, individual animals 1-3, read-out: tmax",60 min
same,half-life,"in vivo; male, BALB/cAnNCrl, mouse, in vivo, po, […], oral gavage, mice, Mean",34.7 min
same,tmax,"in vivo; male, BALB/cAnNCrl, mouse, in vivo, po, […], oral gavage, mice, Mean, read-out: tmax",100 min
same,Plasma concentration 24 h,"in vivo; mouse, in vivo, po",BLOQ
same,Plasma concentration 0.5 h,in vivo; [4],11.7 nM
same,Plasma concentration 1 h,in vivo; [4],15.5 nM
same,Plasma concentration 2 h,in vivo; [4],18.0 nM
same,Plasma concentration 4 h,in vivo; [4],1.62 nM
same,Plasma concentration 6 h,in vivo; [4],1.76 nM
same,Plasma concentration 24 h,in vivo; [4],4.22 nM
same,Plasma concentration […],in vivo; [4],12.2 nM
same,AUC0-inf/Dose,in vivo; [5],3.14 h*nM/nmol/kg and 1.57 h*nM/nmol/kg and 1.80 h*nM/nmol/kg
same,AUC0-t/Dose,in vivo; [5],3.02 h*nM/nmol/kg and 1.53 h*nM/nmol/kg and 1.74 h*nM/nmol/kg
same,Cmax/Dose,in vivo; [5],0.480 nM/nmol/kg and 0.558 nM/nmol/kg and 0.684 nM/nmol/kg
same,t1/2,in vivo; [5],34.6 min and 33.1 min
same,tmax,in vivo; [5],120 min
same,Plasma concentration 0.5 h,in vivo; [6],13.0 nM and 10.7 nM and 11.4 nM
same,Plasma concentration 1 h,in vivo; [6],15.3 nM and 15.7 nM and 15.5 nM
same,Plasma concentration 2 h,in vivo; [6],14.5 nM and 17.8 nM and 21.8 nM
same,Plasma concentration 4 h,in vivo; [6],1.49 nM and 1.61 nM and 1.76 nM
same,Plasma concentration 6 h,in vivo; [6],1.54 nM and 1.59 nM and 2.14 nM
same,Plasma concentration 24 h,in vivo; [6],4.22 nM
same,Plasma concentration […],in vivo; [6],14.2 nM and 11.7 nM and 10.6 nM
same,BA,"in vivo; oral gavage, mice (compound 12: from Animal 2 only; compound 6: maximum potential value)",1.2%
same,AUC0-inf/Dose,"in vivo; oral gavage, mice, Mean",2.17 h*nM/nmol/kg
same,Cmax/Dose,"in vivo; oral gavage, mice, Mean",0.574 nM/nmol/kg
same,AUC0-t/Dose,"in vivo; oral gavage, mice, Mean (compound 6: maximum potential value with 1 nM for each time point)",2.10 h*nM/nmol/kg
same,MBC,"Msm #607; ATCC607, read-out: MBC (from Set 3) Msm ATCC 607",> 47 µg/mL and > 50 µM
same,MBC,"Msm #607; read-out: MBC Msm #607, individual example",> 50 µM and > 47.1 µg/mL
same,MIC,"Enterococcus faecium; Enterococcus faecium, Gram positive, n = 3 well replicates",> 50 µM
same,MIC,"Enterococcus faecium; Enterococcus faecium, Gram-Positive Bacteria, replicates 1-3",> 47 µg/mL
same,MIC,Enterococcus faecium; [7],>50 µM
same,MIC,Staphylococcus aureus; [7],>50 µM
same,MIC,"Staphylococcus aureus; Staphylococcus aureus, Gram positive, n = 3 well replicates",> 50 µM
same,MIC,"Staphylococcus aureus; Staphylococcus aureus, Gram-Positive Bacteria, replicates 1-3",> 47 µg/mL
same,Hepatocyte Rat,[1],51 %Qh
same,Hepatocyte Stability Rat QH,[1],51.066%
same,MBC,Mtb H37Rv; read-out: MBC (from Set 3) Mtb H37Rv,6.25 µM and 5.88 µg/mL
same,MBC,"Mtb H37Rv; individual example, read-out: MBC Mtb H37Rv",6.3 µM and 5.9 µg/mL
same,Emax,[2],1.14
same,intracellular viable mycobacteria,"[2]; 0.195µM, Day 4, well replicates",5.51 log10 cfu/ml
same,intracellular viable mycobacteria,"[2]; 0.195µM, Day 7, well replicates",5.68 log10 cfu/ml
same,intracellular viable mycobacteria,"[2]; 0.781µM, Day 4, well replicates",4.46 log10 cfu/ml and 4.51 log10 cfu/ml
same,intracellular viable mycobacteria,"[2]; 3.125µM, Day 4, well replicates",4.19 log10 cfu/ml and 4.2 log10 cfu/ml
same,intracellular viable mycobacteria,"[2]; 3.125µM, Day 7, well replicates",4.96 log10 cfu/ml
same,Hepatocyte Mice,[3],58 %Qh
